For the assay, the system named is PMA-differentiated THP-1 cells. The experiment in a line: IL-1β production in PMA-differentiated THP-1 cells stimulated with gramicidin (hTHP-1 assay containing 2% fetal bovine serum; Procedures 1 and 2). The assay is classed as cell-based, human. As to conditions: 2% fetal bovine serum. Put shortly: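 IL-1β release from PMA-differentiated THP-1 macrophage-like cells was triggered by 5 μM gramicidin for 2 h after 1 h compound exposure, then measured by HTRF.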

[1] abbreviates: Homo sapiens, THP-1, Table B2, class symbols, read-out: hTHP-1 IC50.
Setting [2] is: Homo sapiens, THP-1, Table B3, hTHP-1 assay, class symbols, read-out: IC50.
[3] abbreviates: Table B2, class symbols, read-out: hTHP-1 IC50.
Setting [4] is: Homo sapiens, THP-1, Table B1, class symbols, read-out: Average IC50 of compounds in hTHP-1 assay: hTHP-1 IC50.
The mark [5] stands for this setting: Table B1, class symbols, read-out: Average IC50 of compounds in hTHP-1 assay: hTHP-1 IC50.
Setting [6] is: Homo sapiens, THP-1, Table B2, numeric bounds, read-out: hTHP-1 IC50.

Where two headings read alike, the source gives them in different places.

Turning to `Cc1c(C(F)(F)F)nc2c(c1NC(=O)N=S(N)(=O)c1cc(C(C)(C)O)cs1)CCC2` (centres unmarked) [Compound 624, 4-(2-Hydroxypropan-2-yl)-N′-((3-methyl-2-(trifluoromethyl)-6,7-dihydro-5H-cyclopenta[b]pyridin-4-yl)carbamoyl)thiophene-2-sulfonimidamide], the IC50 under setting [1] was in the range of 0.04 to 0.2 µM. For `CC1(C)CCc2c1nc1c(c2NC(=O)N=S(N)(=O)c2sc(C(O)(CO)CO)nc2CO)CCC1` (centres unmarked) [Compound 985b], the concentration for half-maximal inhibition (IC50) under setting [2] lay in the range of 0.2 to 1 µM. Take `Cc1c(C(F)(F)F)nc2c(c1NC(=O)N=S(N)(=O)c1cnc(C(C)(C)O)s1)CCC2` (single isomer, unassigned) [Compound 661a, (R) or (S)-2-(2-Hydroxypropan-2-yl)-N′-((3-methyl-2-(trifluoromethyl)-6,7-dihydro-5H-cyclopenta[b]pyridin-4-yl)carbamoyl)thiazole-5-sulfonimidamide]: the IC50 under setting [3] lay in the range of 0.2 to 1 µM. Still for that read-out and setting: to `CC(C)(O)c1cnc(S(N)(=O)=NC(=O)Nc2c3c(nc4c2CCC42CC2)CCC3)s1` (single isomer, unassigned) [Compound 683b, (S) or (R)-5-(2-Hydroxypropan-2-yl)-N′-((1′,5′,6′,7′-tetrahydro-2′H-spiro[cyclopropane-1,3′-dicyclopenta[b,e]pyridin]-8′-yl)carbamoyl)thiazole-2-sulfonimidamide] belongs 5 to 30 µM.

With `Cc1c(C(F)(F)F)nc2c(c1NC(=O)N=S(N)(=O)c1cnc(C(C)(C)O)s1)CCC2C` (centres unmarked) [Compound 608, N′-((3,7-dimethyl-2-(trifluoromethyl)-6,7-dihydro-5H-cyclopenta[b]pyridin-4-yl)carbamoyl)-2-(2-hydroxypropan-2-yl)thiazole-5-sulfonimidamide], under setting [3], the concentration for half-maximal inhibition (IC50) was in the range of 1 to 5 µM. As to `COCc1nc(C(C)(C)O)sc1S(N)(=O)=NC(=O)Nc1c2c(nc3c1CCC3(C)C)CCC2` (single isomer, unassigned) [Compound 170a], the IC50 under setting [3] was in the range of 0.2 to 1 µM. Turning to `CCn1ccc(S(N)(=O)=NC(=O)Nc2c3c(nc4c2CCC42CC2)CCC3)n1` (single isomer, unassigned) [Example 688, (S) or (R)-1-Ethyl-N′-((1′,5′,6′,7′-tetrahydro-2′H-spiro[cyclopropane-1,3′-dicyclopenta[b,e]pyridin]-8′-yl)carbamoyl)-1H-pyrazole-3-sulfonimidamide], under “Table B3, hTHP-1 assay, class symbols, read-out: IC50”, the IC50 lay in the range of 5 to 30 µM. Take `COCc1nc(C(C)(C)O)sc1S(N)(=O)=NC(=O)Nc1c2c(nc3c1CCC3(C)C)CCC2` (centres unmarked) [Compound 170, N′-((3,3-dimethyl-1,2,3,5,6,7-hexahydrodicyclopenta[b,e]pyridin-8-yl)carbamoyl)-2-(2-hydroxypropan-2-yl)-4-(methoxymethyl)thiazole-5-sulfonimidamide]: the 50% inhibitory concentration (IC50) under setting [4] is 1 to 5 µM. Take `CC(C)(O)c1ncc(S(N)(=O)=NC(=O)Nc2c3c(nc4c2CCC4CF)CCC3)s1` (centres unmarked) [Compound 702, N′-((3-(fluoromethyl)-1,2,3,5,6,7-hexahydrodicyclopenta[b,e]pyridin-8-yl)carbamoyl)-2-(2-hydroxypropan-2-yl)thiazole-5-sulfonimidamide]: the 50% inhibitory concentration (IC50) under setting [1] lay within 1 to 5 µM. Consider `CC1CCc2c1nc1c(c2NC(=O)N=S(N)(=O)c2cnc(C(C)(C)O)s2)CCC1` (single isomer, unassigned) [Compound 162ab, (S,R) or (S,S)-2-(2-hydroxypropan-2-yl)-N′-((3-methyl-1,2,3,5,6,7-hexahydrodicyclo-penta[b,e]pyridin-8-yl)carbamoyl)thiazole-5-sulfonimidamide], for which the half-maximal inhibitory concentration (IC50) under setting [5] was in the range of 1 to 5 µM.

As for `CC(C)c1ncc(F)c(C(C)C)c1NC(=O)N=S(N)(=O)c1sc(C(C)(C)O)cc1F` (centres unmarked) [Compound 106, 3-Fluoro-N′-((5-fluoro-2,4-diisopropylpyridin-3-yl)carbamoyl)-5-(2-hydroxypropan-2-yl)thiophene-2-sulfonimidamide], under setting [4], the 50% inhibitory concentration (IC50) is 0.04 to 0.2 µM. For `CCOC(=O)c1nc2c(c(NC(=O)N=S(N)(=O)c3cnc(C(C)(C)O)s3)c1C)CCC2` (centres unmarked) [Compound 706], the half-inhibitory concentration (IC50) under setting [6] is > 30 µM. In the case of `CC(C)(O)c1cc(F)c([S@@](N)(=O)=NC(=O)Nc2c3c(nc(C4CC4)c2C2CC2)CCC3)s1` [Compound 727a], under setting [1], the IC50 was in the range of 1 to 5 µM. Regarding `CCn1ccc(S(N)(=O)=NC(=O)Nc2c3c(nc4c2CC[C@H]4C)CCC3)n1` (single isomer, unassigned) [Compound 634a, (S) or (R)-1-Ethyl-N′-(((R)-3-methyl-1,2,3,5,6,7-hexahydrodicyclopenta [b,e]pyridin-8-yl)carbamoyl)-1H-pyrazole-3-sulfonimidamide], under setting [3], the concentration for half-maximal inhibition (IC50) lay in the range of 5 to 30 µM. `CC1(C)CCc2c1nc1c(c2NC(=O)N=[S@](N)(=O)c2cc([C@@](C)(O)CO)cs2)CCC1` [Example 654, (S)-4-((R)-1,2-dihydroxypropan-2-yl)-N′-((3,3-dimethyl-1,2,3,5,6,7-hexahydrodicyclopenta[b,e]pyridin-8-yl)carbamoyl) thiophene-2-sulfonimidamide]: the IC50 under setting [2] lay within 5 to 30 µM.

On to `CC1(C)CCc2c1nc1c(c2NC(=O)N=[S@@](N)(=O)c2sc(C(O)(CO)CO)nc2CO)CCC1` [Compound 985a], for which the IC50 under setting [2] was 1 to 5 µM. For `N[S@](=O)(=NC(=O)Nc1c2c(nc(C3CC3)c1C1CC1)CCC2)c1ccn(C(F)F)n1` [Compound 728a], under setting [1], the IC50 fell in the range of 5 to 30 µM. With `CC(C)c1ncc(F)c(C(C)C)c1NC(=O)N=S(N)(=O)c1sc(C(C)(C)O)cc1F` (single isomer, unassigned) [Compound 106b, (S) or (R)-3-fluoro-N′-((5-fluoro-2,4-diisopropylpyridin-3-yl)carbamoyl)-5-(2-hy-droxypropan-2-yl)thiophene-2-sulfonimidamide], under setting [5], the IC50 is 1 to 5 µM.

For `CC1CCc2c1nc1c(c2NC(=O)N=S(N)(=O)c2cc(C(C)(C)O)n(-c3ccccc3)n2)CCC1` (single isomer, unassigned) [Compound 664b, (R) or (S)-5-(2-Hydroxypropan-2-yl)-N′-((3-methyl-1,2,3,5,6,7-hexahydrodicyclopenta [b,e]pyridin-8-yl)carbamoyl)-1-phenyl-1H-pyrazole-3-sulfonimidamide], the IC50 under setting [1] was 1 to 5 µM. For `CCn1nc(S(N)(=O)=NC(=O)Nc2c(C)c(C(F)(F)F)nc3c2CCC3)cc1CO` (centres unmarked) [Example 588, 1-Ethyl-5-(hydroxymethyl)-N′-((3-methyl-2-(trifluoromethyl)-6,7-dihydro-5H-cyclopenta[b]pyridin-4-yl)calbamoyl)-1H-pyrazole-3-sulfonimidamide], the half-maximal inhibitory concentration (IC50) under setting [2] was in the range of 1 to 5 µM. Turning to `Cc1cc(C(C)(C)O)sc1S(N)(=O)=NC(=O)Nc1c2c(nc3c1CCC3)CCC2` (single isomer, unassigned) [Compound 695a, (S) or (R)-N′-((1,2,3,5,6,7-hexahydrodicyclopenta [b,e]pyridin-8-yl)carbamoyl)-5-(2-hydroxypropan-2-yl)-3-methylthiophene-2-sulfonimidamide], the IC50 under setting [6] is > 30 µM. On the same count and under the same terms, to `CCn1ccc([S@@](N)(=O)=NC(=O)Nc2c3c(nc(C4CC4)c2C2CC2)CCC3)n1` [Compound 726a] belongs > 30 µM. With `CC1CCc2c1nc1c(c2NC(=O)N=S(N)(=O)c2cc(C(C)(C)O)cs2)CCC1C` [Compound 131b, (S) and (S,R,R) and (S,S,S)-N′-((3,5-dimethyl-1,2,3,5,6,7-hexahydro-dicyclopenta[b,e]py-ridin-8-yl)carbamoyl)-4-(2-hydroxypropan-2-yl)thiophene-2-sulfonimidamide], under setting [5], the IC50 fell in the range of 5 to 30 µM.

Values taken from US20230031406A1, “COMPOUNDS AND COMPOSITIONS FOR TREATING CONDITIONS ASSOCIATED WITH NLRP ACTIVITY” (Novartis AG, priority 2018, published 2023).
